Source: US20250188085A1, “COMPOSITIONS AND METHODS FOR INHIBITION OF RAS” (THERAS, INC., priority 2022, published 2025)
Where two headings read alike, the source gives them in different places.

Legend:
[1] = molecular target: T1, GppNHp-loaded KRAS4b (amino acids 1-169) G12C/C118S protein (Homo sapiens, UniProt P01116, C118S/G12C); assay: Covalent cysteine 12 modification by MALDI-TOF MS, GppNHp-loaded KRAS G12C; format: binding; conditions: 15 minutes reaction time point
T1 construct: KRAS4b (amino acids 1-169) G12C/C118S protein; made in house
Description: (§1) Reaction: 1 μM of GppNHp-, GTP-, or GDP-loaded KRAS4b (amino acids 1-169) G12C/C118S protein (produced in-house by Protein Expression Laboratory, FNLCR/Leidos Biomed) in 20 mM 4-(2-hydroxyethyl)-1-piperazineethanesulfonic acid (HEPES) buffer containing 150 mM NaCl, 1 mM MgCl2, pH 7.3 was prepared freshly before assay. Ten-μL aliquots of protein were dispensed onto low volume 384-well plate, then 375 nL DMSO, and 25 nL of tested compounds from 5 mM DMSO stocks were added to appropriate wells using ECHO 555 acoustic liquid handler (Labcyte Inc.). For each reaction/assay, three blanks were prepared by mixing 10 μL of protein solution with 400 nL DMSO. The contents of the wells were carefully mixed by aspiration, and then each plate was sealed with an adhesive cover, centrifuged at 2000 g for 1 minute, and kept in the dark at room temperature until 5 min, 15 min, 30 min, or 2 h collections.
(§2) Target pretreatment: Before each assay MALDI target (Bruker MPT 384 ground steel BC) was pre-treated by pipetting on each spot 0.75 μL of saturated sinapinic acid in acetonitrile (ACN).
(§3) Sample preparation: At collection time point, 2 μL of reaction mixtures were pipetted out into 20 μL MALDI matrix solution (saturated solution of sinapinic acid in 1:1 ACN:water solution containing 0.75% trifluoroacetic acid (TFA)) deposited on 384 well polypropylene plate. Resulting solution was mixed by aspiration, centrifuged at 2000 g for 1 minute, then 1 μL aliquots were dispensed on pre-treated MALDI target using Beckman Coulter Biomek FXP 96/384-Span-8 Laboratory Automation Workstation. Finally, the MALDI target was dried under mild vacuum to produce spots with fine crystalline structure.
(§4) Measurements: MALDI-TOF measurements were performed on a Bruker Daltonics rapiflex Tissuetyper TOF-TOF mass spectrometer using linear mode and mass range from 18.6 to 21.6 kDa. Detector gain was set to 3.3× (483 V), sample rate to 5 GS/s, real time smoothing to medium (175 MHz), laser smart beam pattern was set to: “MS Thin Layer M5”, and the laser frequency was 10000 Hz. Spectra were automatically collected using custom Auto Xecute method. Laser power was auto adjusted using fuzzy control. The peak selection range was set to be between 19000 and 21500 Da. Peak evaluation uses half width parameter set to be smaller than 40 Da for processed spectrograms (centroid peak detection; smoothed by SavitzkyGolay algorithm using 7 m/z width and 2 cycles; baseline was subtracted using median algorithm with flatness 1 and median level 0.01). Fuzzy control used Proteins/Oligonucleotides protocol with minimum half width 1/10 times above threshold. Up to 40000 satisfactory shots were collected in 10000 shot steps. Dynamic termination was implemented to finish data collection when peak signal/noise ratio was reaching value of 50.
(§5) Spectra processing: Spectra were smoothed by SavitzkyGolay algorithm using 7 m/z width and three cycles. Centroid peak detection algorithm was used with signal to noise threshold set to 6, relative intensity threshold 4%, peak width 10 m/z and median baseline subtraction using flatness of 1 and median level of 0.01. Peak intensity and area under the peak were evaluated and recorded for all peaks between 19,300 Da and 21,550 Da.
(§6) Calculation of percent modification: Percent modification was calculated as a ratio of peak height for protein modified by compound to sum of peak height of remaining protein plus peak height for protein modified by compound. If multiple modifications were observed each was calculated as a ratio of peak height for given modification versus sum of peak heights for all observed protein species. Data reported in Table 5 are from 15 minutes reaction time point.

[2] = molecular target: T2, GDP-loaded KRAS4b (amino acids 1-169) G12C/C118S protein (Homo sapiens, UniProt P01116, C118S/G12C); assay: Covalent cysteine 12 modification by MALDI-TOF MS, GDP-loaded KRAS G12C; format: binding; conditions: 15 minutes reaction time point
T2 construct: KRAS4b (amino acids 1-169) G12C/C118S protein; made in house
Description: as §1, §2, §3, §4, §5, §6

[3] = molecular target: T3, Avi-KRAS G12C (1-169) GppNHp/RAF1 RBD-3×FLAG (52-151) (Homo sapiens, UniProt P01116, G12C); assay: Raf1 RBD-KRAS G12C-GppNHp disruption (protein:protein interaction HTRF assay); format: biochemical
T3 construct: Avi-KRAS G12C (1-169) GppNHp/RAF1 RBD-3×FLAG (52-151)
Description: A protein: protein (PPI) interaction Homogeneous Time Resolved Fluorescence (HTRF) assay was used to determine the effectiveness of compounds of the present disclosure in disrupting KRAS G12C protein and effector (RAF1 or PIK3CA) binding.
The HTRF assay used the following reagents and proteins: 50 nM Avi-KRAS G12C Q25A (1-169) GppNHp/3×FLAG-PI3K CA (157-299); 50 nM Avi-KRAS G12C (1-169) GppNHp/RAF1 RBD-3×FLAG (52-151); 35 nM Avi-PI3K RBD-3×FLAG; Assay Buffer: 50 mM Tris pH 7.5, 100 mM NaCl, 5 mM MgCl2, 0.1% BSA, 0.01% Tween 20, 10% DMSO; Bead Buffer: 50 mM Tris pH 7.5, 0.01% Tween 20; Assay volume: 20 μL (384 well plate-low volume format); and Compound titration: 30-0.02 μM, 3× dilution series.
The HTRF assay employed the following protocol:
Compounds were dispensed in assay plate (384-well, Grenier Bione #784075) using Echo (model 555) with dose response settings: 200 nL final volume, titration from 100 μM as a 10-point dilution series. KRAS proteins were prepared in assay buffer, and dispensed on plates, 5 μL per well, then incubated for 1 h at room temperature, with 700 rpm shaking. RAF1 RBD and PI3K RBD CA were prepared in assay buffer, dispensed onto plates, 5 μL per well, and then incubated for 1 h at room temperature, with 700 rpm shaking. Reagent mix was then prepared and dispensed on plates, 10 μL per well, and then incubated for 1 h at room temperature, with 700 rpm shaking.
Plates were analyzed on an Envision plate reader using the following setting: Excitation 320 nm, Bandwidth 75 nm; Emission 615 nm, Bandwidth 85 nm; Gain 100%; Flashes 100; Lag 60 μs. Data was reported as percentage of activity, with DMSO as 100%. Data was plotted and analyzed using Prism 8.

pERK in NCI-H358 cells = assay: Cell-based pERK HTRF assay; conditions: 30 min incubation, read-out: pERK in NCI-H358 cell inhibition IC50
Description: pERK assays (Perkin Elmer) were used to determine the effectiveness of compounds of the present disclosure in disrupting KRAS G12C protein/effector signaling in cells.
On Day 1, cells (NCI-H358) were seeded into 96-well plates at 4×10^4 cells/well in complete growth media (RPMI, 10% FBS).
On Day 2, cells were treated with compounds at 0.25% DMSO. The source plate was created with compounds diluted in media at 5-fold the final assay concentration. The compounds were run in a 9-point concentration curve starting at 75 μM, with a 3-fold dilution between concentrations. 20 μL was transferred onto the cell plates (final volume in wells was 100 μL). Plates were harvested after 30 min incubation by aspirating media and adding kit-supplied 1× supplemented lysis buffer to all wells (75 μl per well). Plates were then placed on a plate shaker and incubated at 850 rpm for an additional 30 min.
Antibody mixture solution was prepared by diluting aliquoted d2 and Eu Cryptate antibodies 1:20 in kit supplied detection buffer, then mixed the diluted antibodies solutions (1:1 v:v). 4 μL of this solution was then added to a 384-well detection plate (Perkin Elmer; 6008230).
Samples were homogenized by pipetting up and down and then transferred (16 μL of cell lysates) from the 96-well cell culture plate to two wells of the HTRF 384-well detection plate containing the antibody solution. Plates were centrifuged (524 g for Imin) and allowed to incubate between 4 and 24 h at room temperature. Maximum signal is reached after 4 h incubation time and remains stable over a period of 24 hours. Therefore, readings can be made between 4 and 24 h of incubation. Plates were centrifuged again (524 g for Imin) and analyzed on the En Vision plate reader using the following settings: Excitation 320 nm, Bandwidth 75 nm; Emission 615 nm, Bandwidth 85 nm; Gain 100%; Flashes 100; Lag 60 μs.

Compound	GppNHp-KRAS G12C percent of modification [1]	GDP-KRAS G12C percent of modification [2]	IC50 [3] [µM]	IC50 (pERK in NCI-H358 cells; Homo sapiens, NCI-H358, 0.5 h) [µM]	IC50 (pERK in NCI-H358 cells) [µM]
C=CC(=O)N1CC[C@H](Oc2nc(OC[C@@]34CCCN3C[C@H](F)C4)nc3c(F)c(-c4ccc(F)c5sc(N)nc45)c(Cl)cc23)C1 (atropisomer, axis not shown) [Compound 4]	D (percent of modification <10%)	D (percent of modification <10%)	> 20	> 1	–
C=CC(=O)N1CC[C@H](Oc2nc(OC[C@@]34CCCN3C[C@H](F)C4)nc3c(F)c(-c4ccc(F)c5sc(N)nc45)c(C(F)(F)F)cc23)C1 (atropisomer, axis not shown) [Compound 5]	D (percent of modification <10%)	D (percent of modification <10%)	5 to 20	–	> 1
C=CC(=O)N1CC[C@@H](Oc2nc(OC[C@@]34CCCN3C[C@H](F)C4)nc3c(F)c(-c4ccc(F)c5sc(N)nc45)c(Cl)cc23)C1 (atropisomer, axis not shown) [Compound 10]	D (percent of modification <10%)	D (percent of modification <10%)	0.5 to 5	–	0.1 to 1
C=CC(=O)N1CC[C@@H](Oc2nc(OC[C@@H]3CC(C)(C)CN3C)nc3c(F)c(-c4ccc(F)c5sc(N)nc45)c(C(F)(F)F)cc23)C1 (atropisomer, axis not shown) [Compound 16]	C (10%≤modification <50%)	A (percent of modification ≥70%)	0.5 to 5	–	0.1 to 1
C=CC(=O)N1CC[C@@H](Oc2nc(OC[C@@H]3CC(C)(C)CN3C)nc3c(F)c(-c4ccc(F)c5sc(N)nc45)c(C(F)(F)F)cc23)C1 (atropisomer, axis not shown) [Compound 17]	D (percent of modification <10%)	D (percent of modification <10%)	> 20	–	> 1
C=CC(=O)N1CC[C@@H](Oc2nc(OC[C@@H]3C[C@@H](F)CN3C)nc3c(F)c(-c4ccc(F)c5sc(N)nc45)c(C(F)(F)F)cc23)C1 (atropisomer, axis not shown) [Compound 19]	D (percent of modification <10%)	D (percent of modification <10%)	5 to 20	–	> 1
C=CC(=O)N1CCC[C@@H](Oc2nc(OC[C@@H]3C[C@@H](F)CN3C)nc3c(F)c(-c4ccc(F)c5sc(N)nc45)c(C(F)(F)F)cc23)C1 (atropisomer, axis not shown) [Compound 20]	D (percent of modification <10%)	B (50≤percent of modification <70%)	5 to 20	> 1	–
C=CC(=O)N1CCC[C@@H](Oc2nc(OC[C@@H]3C[C@@H](F)CN3C)nc3c(F)c(-c4ccc(F)c5sc(N)nc45)c(C(F)(F)F)cc23)C1 (atropisomer, axis not shown) [Compound 21]	D (percent of modification <10%)	D (percent of modification <10%)	> 20	–	> 1

More lines, now with the values ahead:

GppNHp-KRAS G12C percent of modification [1]	GDP-KRAS G12C percent of modification [2]	IC50 [3] [µM]	IC50 (pERK in NCI-H358 cells; Homo sapiens, NCI-H358, 0.5 h) [µM]	IC50 (pERK in NCI-H358 cells) [µM]	Compound
A (percent of modification ≥70%)	A (percent of modification ≥70%)	≤ 0.5	≤ 0.1	–	C=CC(=O)N1CC[C@@H](Oc2nc(OC[C@@]34CCCN3C[C@H](F)C4)nc3c(F)c(-c4ccc(F)c5sc(N)nc45)c(Cl)cc23)C1 (atropisomer, axis not shown) [Compound 3]
D (percent of modification <10%)	C (10%≤modification <50%)	0.5 to 5	–	> 1	C=CC(=O)N1CC[C@H](Oc2nc(OC[C@@]34CCCN3C[C@H](F)C4)nc3c(F)c(-c4ccc(F)c5sc(N)nc45)c(Cl)cc23)C1 (atropisomer, axis not shown) [Compound 8]
D (percent of modification <10%)	C (10%≤modification <50%)	0.5 to 5	–	0.1 to 1	C=CC(=O)N1CC[C@H](Oc2nc(OC[C@@]34CCCN3C[C@H](F)C4)nc3c(F)c(-c4ccc(F)c5sc(N)nc45)c(C(F)(F)F)cc23)C1 (atropisomer, axis not shown) [Compound 9]
C (10%≤modification <50%)	A (percent of modification ≥70%)	≤ 0.5	–	≤ 0.1	C=CC(=O)N1CC[C@@H](Oc2nc(OC[C@@H]3C[C@@H](F)CN3C)nc3c(F)c(-c4ccc(F)c5sc(N)nc45)c(C(F)(F)F)cc23)C1 (atropisomer, axis not shown) [Compound 18]
